Source: ChEMBL document CHEMBL1131864, “Effects of sesquiterpenes and triterpenes from the rhizome of Alisma orientale on nitric oxide production in lipopolysaccharide-activated macrophages: absolute stereostructures of alismaketones-B 23-acetate and -C 23-acetate” (Bioorg Med Chem Lett, 1999)

How the values were obtained:
Type in all cases: functional
Mus musculus [1] = species on record: Mus musculus; experiment: Inhibition of nitric oxide production in LPS-activated mouse macrophages at a concentration of 30 uM
Mus musculus [2] = species on record: Mus musculus; experiment: Inhibition of nitric oxide production in LPS-activated mouse macrophages at a concentration of 3 uM
Mus musculus [3] = species on record: Mus musculus; experiment: Inhibition of nitric oxide production in LPS-activated mouse macrophages at a concentration of 100 uM
Mus musculus [4] = species on record: Mus musculus; experiment: Inhibition of nitric oxide production in LPS-activated mouse macrophages at a concentration of 10 uM
Mus musculus [5] = species on record: Mus musculus; experiment: Inhibition of nitric oxide production in LPS-activated mouse macrophages at a concentration of 1 uM
Mus musculus [6] = species on record: Mus musculus; experiment: Concentration required for inhibition of nitric oxide production in LPS-activated mouse macrophages

| Structure (SMILES) | IC50 (Mus musculus [6]) | inhibition at 30 µM (Mus musculus [1]) | inhibition at 3 µM (Mus musculus [2]) | inhibition at 100 µM (Mus musculus [3]) | inhibition at 10 µM (Mus musculus [4]) | inhibition at 1 µM (Mus musculus [5]) |
| --- | --- | --- | --- | --- | --- | --- |
| C[C@H](C[C@H](O)[C@H](O)C(C)(C)O)C1=C2C[C@H](O)C3[C@@]4(C)CCC(=O)C(C)(C)C4CC[C@]3(C)[C@@]2(C)CC1 (stereo not given in full) | > 10 µM | 113% | 21.4% | 111% | 30% | 5.8% |
| CC(=O)O[C@@H](C[C@@H](C)C1=C2[C@H](O)[C@H](O)C3[C@@]4(C)CCC(=O)C(C)(C)C4CC[C@]3(C)[C@@]2(C)CC1)[C@H]1OC1(C)C (stereo not given in full) | > 10 µM | 117% | 4% | 116% | 32.3% | 5.9% |
| C[C@H](C[C@H](O)[C@@H](O)C(C)(C)O)C1=C2C[C@H](O)C3[C@@]4(C)CCC(=O)C(C)(C)C4CC[C@]3(C)[C@@]2(C)CC1 (stereo not given in full) | > 10 µM | 84.2% | 21.4% | 114% | 26.2% | 0.2% |
| C=C(C)[C@H](O)[C@@H](O)C[C@@H](C)C1=C2C[C@H](O)C3[C@@]4(C)CCC(=O)C(C)(C)C4CC[C@]3(C)[C@@]2(C)CC1 (stereo not given in full) | > 10 µM | 104% | 21.4% | 106% | 29.7% | 8.8% |
| CC(C)C1=CC2C(CC[C@]2(C)O)/C(=C/S(=O)(=O)O)CC1 (stereo not given in full) | > 100 µM | 21.5% | 14.3% | 27.1% | 11% | 8.4% |
| CC(C)C1=CC2C(CC[C@]2(C)O)[C@@](O)(CS(=O)(=O)O)CC1 (stereo not given in full) | > 100 µM | 16.3% | -2.2% | 21.3% | 4.9% | 2.8% |
| CC(C)C1=CC2C(CC[C@]2(C)O)[C@](C)(O)CC1 (stereo not given in full) | > 100 µM | 12% | -1.8% | 33.1% | 0.4% | -2.5% |
| CC(C)[C@]12CC[C@](C)(O1)C1CC[C@](C)(S(=O)(=O)O)C1[C@@H]2O (stereo not given in full) | > 100 µM | 12.6% | -2.1% | 24.7% | 4.3% | 3.3% |
| CC(=O)O[C@@H](C[C@@H](C)[C@]12O[C@H]1C[C@@]1(C)C2=CC(=O)C2[C@@]3(C)CCC(=O)C(C)(C)C3CC[C@@]21C)[C@H]1OC1(C)C (stereo not given in full) | > 10 µM | 83.6% | 11.9% | 114% | 31.1% | 9.9% |
| CC(=O)O[C@@H](C[C@@H](C)C1=C2C[C@H](O)C3[C@@]4(C)CCC(=O)C(C)(C)C4CC[C@]3(C)[C@@]2(C)CC1)[C@H]1OC1(C)C (stereo not given in full) | > 10 µM | 106% | 13.4% | 105% | 29.7% | 0% |
| CC(C)C1=CC2C(CC[C@]2(C)O)[C@@](O)(CO)CC1 (stereo not given in full) | 68 µM | 21.2% | -3.1% | 64.1% | 4.8% | -4.3% |
| C[C@H](C[C@H](O)[C@H]1OC1(C)C)C1=C2C[C@H](O)C3[C@@]4(C)CCC(=O)C(C)(C)C4CC[C@]3(C)[C@@]2(C)CC1 (stereo not given in full) | > 10 µM | 109% | 21.3% | 108% | 36.3% | 13.2% |
| CC(=O)O[C@H]([C@@H](O)C[C@@H](C)C1=C2C[C@H](O)C3[C@@]4(C)CCC(=O)C(C)(C)C4CC[C@]3(C)[C@@]2(C)CC1)C(C)(C)O (stereo not given in full) | > 10 µM | 71% | 6.4% | 112% | 13.4% | -2.9% |
| C=C1/C=C/[C@H](C(C)C)CC/C(C)=C/CC1 [GERMACRENE D] | 58 µM | 29% | 1.6% | 68.5% | 16.7% | 7.5% |

Further lines, with some results ahead:

| IC50 (Mus musculus [6]) | Structure (SMILES) | inhibition at 30 µM (Mus musculus [1]) | inhibition at 3 µM (Mus musculus [2]) | inhibition at 100 µM (Mus musculus [3]) | inhibition at 10 µM (Mus musculus [4]) | inhibition at 1 µM (Mus musculus [5]) |
| --- | --- | --- | --- | --- | --- | --- |
| 10 µM | COC(=O)C(C)(C)C1CC[C@@]2(C)C3[C@H](CC4=C([C@H](C)C[C@H](OC(C)=O)[C@H]5OC5(C)C)CC[C@@]42C)OC(=O)C[C@@]13C (stereo not given in full) | 84.2% | 17.2% | 110% | 49.2% | -2.6% |
| 36 µM | CC(=O)O[C@H]1C[C@@H](C)C2=C3C[C@H](O)C4[C@@]5(C)CCC(=O)C(C)(C)C5CC[C@]4(C)[C@@]3(C)C[C@@H]2O[C@H]1C(C)(C)O (stereo not given in full) | 42.9% | 7.5% | 90.8% | 13.5% | -4.5% |
| 23 µM | C=C1CCC(C(C)C)=CC2C1CC[C@]2(C)O (stereo not given in full) | 57.5% | 17.6% | 97.4% | 27% | 3.4% |
| 12 µM | C[C@@H]1CC([C@H]2OC2(C)C)OC2C[C@@]3(C)C(=C21)CCC1[C@@]2(C)CCC(=O)C(C)(C)C2CC[C@@]13C (stereo not given in full) | 84.2% | 21.7% | 100% | 31.2% | -5.1% |
| 17 µM | C[C@H](CC(=O)CC(C)(C)O)C1=C2CCC3[C@@]4(C)CCC(=O)C(C)(C)C4CC[C@]3(C)[C@@]2(C)CC1=O (stereo not given in full) | 71.3% | 17.2% | 97.2% | 26.7% | -5.1% |
| 42 µM | CC(=O)O[C@@H](C[C@@H](C)C1=C2C[C@H](O)C3[C@@]4(C)CCC(=O)C(C)(C)C4CC[C@]3(C)[C@@]2(C)CC1=O)[C@H]1OC1(C)C (stereo not given in full) | 43.8% | 13.3% | 67.3% | 21.1% | 2.9% |
| 53 µM | C=C1CC[C@@]2(C(C)C)O[C@H]2C2C1CC[C@]2(C)O (stereo not given in full) | 29.2% | 5% | 74.9% | 14.1% | 0.9% |
| 16 µM | CC(=O)O[C@@H](C[C@@H](C)C1=C2C[C@H](O)C3[C@@]4(C)CCC(=O)C(C)(C)C4CC[C@]3(C)[C@@]2(C)CC1)[C@H](O)C(C)(C)O (stereo not given in full) | 81% | 10% | 104% | 32.1% | 9.2% |
| 8.4 µM | CC(=O)O[C@@H](C[C@@H](C)C1=C2C=CC3[C@@]4(C)CCC(=O)C(C)(C)C4CC[C@]3(C)[C@@]2(C)CC1=O)[C@H]1OC1(C)C (stereo not given in full) | 86.5% | 27.9% | 104% | 54.8% | 17.8% |
| 23 µM | CC(=O)O[C@@H](C[C@@H](C)C(=O)CC[C@@]1(C)C(=O)C=CC2[C@@]3(C)CCC(=O)C(C)(C)C3CC[C@@]21C)[C@H]1OC1(C)C (stereo not given in full) | 61% | 10.2% | 114% | 22.7% | 2.9% |
| 9.3 µM | CC(=O)O[C@@H](C[C@@H](C)C1=C2[C@H](O)[C@H](O)C3[C@@]4(C)CCC(=O)C(C)(C)C4CC[C@]3(C)[C@@]2(C)CC1=O)[C@H]1OC1(C)C (stereo not given in full) | 86.3% | 29.7% | 104% | 50.8% | 19% |
| 15 µM | C[C@@H]1CC([C@@H](O)C(C)(C)O)OC2C[C@@]3(C)C(=C21)C[C@H](O)C1[C@@]2(C)CCC(=O)C(C)(C)C2CC[C@@]13C (stereo not given in full) | 69.6% | 14.8% | 99.5% | 40.3% | 7.5% |
| 16 µM | CC(=O)O[C@@H](C[C@@H](C)C1=C2C[C@@H]3OC(=O)C[C@@]4(C)C(C(C)(C)C(=O)O)CC[C@@](C)(C34)[C@@]2(C)CC1)[C@H]1OC1(C)C (stereo not given in full) | 65.6% | 23.2% | 90.7% | 38.2% | 10.3% |
| 4 µM | O=C(/C=C/c1ccc(O)c(O)c1)OCCc1ccccc1 [CAFFEIC ACID PHENETHYL ESTER] | 104% | 25.5% | 104% | 97.5% | -1.9% |
| 1.4 µM | N=C(N)NCCSSCCNC(=N)N [GUANIDINOETHYLDISULFIDE] | 105% | 76.3% | 105% | 102% | 39.1% |
| 28 µM | CNC(=N)NCCC[C@H](N)C(=O)O [TILARGININE] | 52.3% | 2% | 79.2% | 17.7% | 4.4% |
